Reference: US12692262B2, “Substituted ureas as orexin receptor agonists” (Merck Sharp & Dohme LLC, priority 2020, dated 2026)

Target: T1, human OX2R (Homo sapiens, UniProt O43614)
T1 construct: expressed in transfected cells; host or cells: CHO (Chinese hamster ovary) cells grown under G418 selection
T1 sequence (O43614 1-444): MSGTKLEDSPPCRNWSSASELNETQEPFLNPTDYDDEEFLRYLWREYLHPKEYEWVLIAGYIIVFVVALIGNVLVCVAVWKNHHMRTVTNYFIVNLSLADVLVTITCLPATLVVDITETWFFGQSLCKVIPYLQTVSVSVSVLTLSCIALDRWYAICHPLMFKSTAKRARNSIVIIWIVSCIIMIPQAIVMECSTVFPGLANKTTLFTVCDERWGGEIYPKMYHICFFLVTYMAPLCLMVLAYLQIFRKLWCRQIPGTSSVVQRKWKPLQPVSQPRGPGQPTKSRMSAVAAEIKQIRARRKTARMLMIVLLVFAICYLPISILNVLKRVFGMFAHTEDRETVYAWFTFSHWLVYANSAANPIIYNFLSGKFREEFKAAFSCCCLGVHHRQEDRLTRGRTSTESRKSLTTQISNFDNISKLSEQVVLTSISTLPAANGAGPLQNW
Assay: IPOne (IP-1 accumulation) assay in CHO cells expressing human OX2R
Format: cell-based
Settings: for EC50: CHO cells expressing human OX2R, IP-One assay, 2 h incubation, four parameter logistic fit, read-out: OX2R Potency, EC50; for % of maximum agonist effect (relative to Orexin A): percent effect vs mean max effect of a reference compound at 1 uM (100% activity vs Orexin A), human OX2R
Procedure, shortened: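 Agonist EC50 values come from the inflection point of four-parameter logistic curves. Read-out is IP-1 accumulation detected with lysis buffer plus D2 and AB-cryptate reagents (HTRF), in CHO cells engineered to express human OX2R.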

Row | EC50 | % of maximum agonist effect (relative to Orexin A) | % of maximum agonist effect (relative to Orexin A) (1 µM) | Compound
1 | 0.7 nM | 101.6% |  | CCN(C(=O)N[C@@H](CCC(F)(F)F)C(F)(F)F)[C@H](C)c1cnc(OC)c(-c2cn3ccnc3c(OC)n2)c1 [Example 11-4, 1-ethyl-3-((S)-1,1,1,5,5,5-hexafluoropentan-2-yl)-1-((R)-1-(6-methoxy-5-(8-methoxyimidazo[1,2-a]pyrazin-6-yl)pyridin-3-yl)ethyl)urea]
2 | 0.6 nM | 100.1% |  | CCN(C(=O)N[C@@H](CCC(F)(F)F)C(F)(F)F)[C@H](C)c1cc(-c2cc(OC)n3nccc3c2)c(OC)cn1 [Example 11-5, 1-ethyl-3-((S)-1,1,1,5,5,5-hexafluoropentan-2-yl)-1-((R)-1-(5-methoxy-4-(7-methoxypyrazolo[1,5-a]pyridin-5-yl)pyridin-2-yl)ethyl)urea]
3 | 0.6 nM | 100.1% |  | CCN(C(=O)N[C@@H](CCC(F)(F)F)C(F)(F)F)[C@H](C)c1cc(-c2cn3ccnc3c(OC)n2)c(OC)cn1 [Example 12-1, 1-ethyl-3-((S)-1,1,1,5,5,5-hexafluoropentan-2-yl)-1-((R)-1-(5-methoxy-4-(8-methoxyimidazo[1,2-a]pyrazin-6-yl)pyridin-2-yl)ethyl)urea]
4 | 1.2 nM | 100.6% |  | CCN(C(=O)N[C@@H](CCC(F)(F)F)C1CC1)[C@H](C)c1cnc(OC)c(-c2cn3ccnc3c(OC)n2)c1 [Example 12-2, 3-((S)-1-cyclopropyl-4,4,4-trifluorobutyl)-1-ethyl-1-((R)-1-(6-methoxy-5-(8-methoxyimidazo[1,2-a]pyrazin-6-yl)pyridin-3-yl)ethyl)urea]
5 | 11.7 nM | 101.4% |  | CCN(C(=O)N[C@@H](CCC(F)(F)F)C(F)(F)F)C(C)c1ccnc(-c2cn3ccnc3c(OC)n2)c1 (stereo partly drawn) [Example 13-1, 1-ethyl-3-((S)-1,1,1,5,5,5-hexafluoropentan-2-yl)-1-(1-(2-(8-methoxyimidazo[1,2-a]pyrazin-6-yl)pyridin-4-yl)ethyl)urea]
6 | 16.8 nM | 101.4% |  | CCN(C(=O)N[C@@H](CCC(F)(F)F)C(F)(F)F)C(C)c1cc(-c2cn3ccnc3c(OC)n2)ncn1 (stereo partly drawn) [Example 13-2, 1-ethyl-3-((S)-1,1,1,5,5,5-hexafluoropentan-2-yl)-1-(1-(6-(8-methoxyimidazo[1,2-a]pyrazin-6-yl)pyrimidin-4-yl)ethyl)urea]
7 | 1.5 nM | 100.3% |  | CCN(C(=O)N[C@@H](CCC(F)(F)F)C(F)(F)F)[C@H](C)c1cc(-c2cn3ccnc3c(OC)n2)ccn1 [Example 14-1, 1-ethyl-3-((S)-1,1,1,5,5,5-hexafluoropentan-2-yl)-1-((R)-1-(4-(8-methoxyimidazo[1,2-a]pyrazin-6-yl)pyridin-2-yl)ethyl)urea]
8 | 2.6 nM | 96.0% |  | CC[C@H](CCC(F)(F)F)NC(=O)N(CC)[C@H](C)c1ccc(Cl)c(-c2cc(OC)c3nccn3c2)c1 [Example 14-2, 1-((R)-1-(4-chloro-3-(8-methoxyimidazo[1,2-a]pyridin-6-yl)phenyl)ethyl)-1-ethyl-3-((R)-6,6,6-trifluorohexan-3-yl)urea]
9 | 1 nM | 99.1% |  | CCN(C(=O)N[C@@H](CCC(F)(F)F)C(F)(F)F)C(C)c1cc(-c2cc(F)c3nccn3c2)c(OC)cn1 (stereo partly drawn) [Example 15-2, 1-ethyl-1-(1-(4-(8-fluoroimidazo[1,2-a]pyridin-6-yl)-5-methoxypyridin-2-yl)ethyl)-3-((S)-1,1,1,5,5,5-hexafluoropentan-2-yl)urea]
10 | 0.7 nM | 101.8% |  | CCN(C(=O)NC(CNS(=O)(=O)N(C)C)C(F)(F)F)[C@H](C)c1cccc(-c2cn3ccnc3c(OC)n2)c1 (stereo partly drawn) [Example 17, N-{3-[(dimethylsulfamoyl)amino]-1,1,1-trifluoropropan-2-yl}-N-ethyl-N-{(1R)-1-[3-(8-methoxyimidazo[1,2-a]pyrazin-6-yl)phenyl]ethyl}urea]
11 | 126 nM | 99.6% |  | CC[C@H](CCC(F)(F)F)NC(=O)N(CC)C(C)(C)c1cccc(-c2ccc3nccn3c2)c1 [Example 18, (R)-1-ethyl-1-(2-(3-(imidazo[1,2-a]pyridin-6-yl)phenyl)propan-2-yl)-3-(6,6,6-trifluorohexan-3-yl)urea]
12 | 23.2 nM | 94.9% |  | C=Cc1ccc([C@@H](C)N(CC)C(=O)N[C@H](CC)CCC(F)(F)F)cc1-c1ccc2nccn2c1 [Example 19, 1-ethyl-1-((R)-1-(3-(imidazo[1,2-a]pyridin-6-yl)-4-vinylphenyl)ethyl)-3-((R)-6,6,6-trifluorohexan-3-yl)urea]
13 |  |  | 100.1% | CCN(C(=O)N[C@@H](C=C(C)C)C(F)(F)F)[C@H](C)c1cccc(-c2cn3ccnc3c(OC)n2)c1 [Example 20, 1-ethyl-1-((R)-1-(3-(8-methoxyimidazo[1,2-a]pyrazin-6-yl)phenyl)ethyl)-3-((S)-1,1,1-trifluoro-4-methylpent-3-en-2-yl)urea]
14 | 25.3 nM | 97.0% |  | CCN(C(=O)NC(COC(C)=O)C(F)(F)F)[C@H](C)c1cccc(-c2cn3ccnc3c(OC)n2)c1 (stereo partly drawn) [Example 22, 2-(3-ethyl-3-((R)-1-(3-(8-methoxyimidazo[1,2-a]pyrazin-6-yl)phenylethyl)ureido)-3,3,3-trifluoropropyl acetate]
15 | 619 nM | 98.5% |  | CC[C@H](CCC(F)(F)F)NC(=O)N(CC)[C@H](C)c1cccc(-c2cc3c(c(OC)c2)NCC3)c1 [Example 25, 1-ethyl-1-((R)-1-(3-(7-methoxyindolin-5-yl)phenyl)ethyl)-3-((R)-6,6,6-trifluorohexan-3-yl)urea]
16 | 144 nM | 89.1% |  | CCN(C(=O)N[C@@H](CCC(F)(F)F)C(F)(F)F)[C@H](C)c1cccc(-c2cc(OC)c3nc(O)cn3c2)c1 [Example 26, 1-ethyl-3-((S)-1,1,1,5,5,5-hexafluoropentan-2-yl)-1-((R)-1-(3-(2-hydroxy-8-methoxyimidazo[1,2-a]pyridin-6-yl)phenyl)ethyl)urea]
17 | 619 nM | 98.5% |  | CCN(C(=O)N[C@@H](CCC(F)(F)F)C(F)(F)F)[C@H](C)c1cccc(-c2cc(OC)c3nc(C(F)(F)F)cn3c2)c1 [Example 27, 1-ethyl-3-((S)-1,1,1,5,5,5-hexafluoropentan-2-yl)-1-((R)-1-(3-(8-methoxy-2-(trifluoromethyl)imidazo[1,2-a]pyridin-6-yl)phenyl)ethyl)urea]
18 | 2130 nM | 97.2% |  | CCN(C(=O)N[C@@H](CCC(F)(F)F)C(F)(F)F)C(=C(F)F)c1cc(-c2cn3ccnc3c(OC)n2)c(OC)cn1 [Example 28, (S)-1-(2,2-difluoro-1-(5-methoxy-4-(8-methoxyimidazo[1,2-a]pyrazin-6-yl)pyridin-2-yl)vinyl)-1-ethyl-3-(1,1,1,5,5,5-hexafluoropentan-2-yl)urea]
19 | 4730 nM | 97.0% |  | CCN(C(=O)N[C@@H](CCC(F)(F)F)C(F)(F)F)[C@H](C)c1cnc(O)c(-c2cc(OC)n3nccc3c2)c1 [Example 30, 1-ethyl-3-((S)-1,1,1,5,5,5-hexafluoropentan-2-yl)-1-((R)-1-(6-hydroxy-5-(7-methoxypyrazolo[1,5-a]pyridin-5-yl)pyridin-3-yl)ethyl)urea]
